{"source": "paper PMC4655241", "about": "“The Structure of a Novel Thermophilic Esterase from the Planctomycetes Species, Thermogutta terrifontis Reveals an Open Active Site Due to a Minimal ‘Cap’ Domain” (Frontiers in Microbiology, 2015)", "key": {"TtEst2 [1]": {"biological_target": "T1, TtEst2 (Thermogutta terrifontis, UniProt A0A0X1KHD1)", "T1 construct": "mature form, predicted signal peptide removed; pLATE52 N-terminal His6 tag with WELQ protease site (cleavage not mentioned); E. coli BL21 (DE3); monomer; residues 1-283 modelled", "T1 sequence (A0A0X1KHD1 entry or part of it)": "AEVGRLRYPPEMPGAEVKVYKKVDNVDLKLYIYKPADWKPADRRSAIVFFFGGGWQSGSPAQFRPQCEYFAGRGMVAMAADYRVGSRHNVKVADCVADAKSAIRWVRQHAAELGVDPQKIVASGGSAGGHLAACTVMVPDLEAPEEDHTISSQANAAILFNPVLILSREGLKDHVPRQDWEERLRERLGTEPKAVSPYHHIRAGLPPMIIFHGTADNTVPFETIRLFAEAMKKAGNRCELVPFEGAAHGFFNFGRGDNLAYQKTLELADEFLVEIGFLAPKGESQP", "assay": "X-ray crystal structure, soak", "assay_type": "binding", "details": "carboxyl pocket of active site"}, "TtEst2 [2]": {"biological_target": "T1, TtEst2", "assay": "pNP release, A410", "assay_type": "biochemical", "details": "1 mM substrate, 20 mM HEPES, 100 mM NaCl, pH 7.5, 25 C"}}, "data": [{"compound": "CCCC(=O)O", "note": "[butyrate]", "values": [{"measurement": "X-ray crystal structure, soak", "setting": "TtEst2 [1]; pH 4.5, 25 mM soak, oxyanion hole, 1.79 A", "value": "5AOB (butyrate bound)"}]}, {"compound": "CC(=O)Oc1ccc([N+](=O)[O-])cc1", "note": "[pNP-acetate]", "values": [{"measurement": "pNP release, A410", "setting": "TtEst2 [2]", "value": "The enzyme was most active toward pNP-acetate"}]}, {"compound": "CCC(=O)O", "note": "[propionate]", "values": [{"measurement": "X-ray crystal structure, soak", "setting": "TtEst2 [1]; pH 4.5, 25 mM soak, oxyanion hole, 1.71 A", "value": "5AOA (propionate bound)"}]}, {"compound": "CCCCC(=O)O", "note": "[valerate]", "values": [{"measurement": "X-ray crystal structure, soak", "setting": "TtEst2 [1]; pH 4.5, soaked as 25 mM pNP-valerate, only valerate part seen, 1.79 A", "value": "5AOC (valerate bound)"}]}]}
